Assay results: paper PMC3847553, “Kinetic properties of “dual” orexin receptor antagonists at OX1R and OX2R orexin receptors” (Frontiers in Neuroscience, 2013)
Read-outs that look alike come from different tables or passages of the source.

What was measured:
[1] = biological target: T1, rat OX2R (Rattus norvegicus, UniProt P56719); experiment: FLIPR orexin A-stimulated calcium accumulation, rat OX2R; format: cell-based; conditions: HEK cells
T1 sequence (P56719 1-460): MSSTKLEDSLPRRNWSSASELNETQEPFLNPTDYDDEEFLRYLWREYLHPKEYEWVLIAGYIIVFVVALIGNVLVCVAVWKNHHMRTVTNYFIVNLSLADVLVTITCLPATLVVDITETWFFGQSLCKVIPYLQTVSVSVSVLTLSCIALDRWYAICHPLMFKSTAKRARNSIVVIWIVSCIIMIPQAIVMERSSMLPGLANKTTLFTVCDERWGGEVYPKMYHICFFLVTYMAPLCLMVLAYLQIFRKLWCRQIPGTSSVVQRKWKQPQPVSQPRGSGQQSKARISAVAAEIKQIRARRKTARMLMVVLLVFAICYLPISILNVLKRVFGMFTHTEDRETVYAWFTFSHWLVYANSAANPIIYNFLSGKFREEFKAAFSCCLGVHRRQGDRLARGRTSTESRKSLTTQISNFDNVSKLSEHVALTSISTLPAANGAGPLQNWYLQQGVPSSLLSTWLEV
From the text: Chinese Hamster Ovary (CHO) cells stably transfected with the cDNA encoding the human OX1R (CHO-hOX1) or OX2R (CHO-hOX2) were used (kindly provided by T. Cremer and Dr. S. Geisse, NIBR Basel, Switzerland). For measurements of calcium accumulation using FLIPR® (Fluorescent Imaging Plate Reader) assay, CHO or Human Embryonic Kidney (HEK) cells stably expressing mouse, rat or human OX1R or OX2R (kindly provided by Dr. A. Chen, GNF, San Diego, CA, USA) were used. […] Cells were maintained in a humidified incubator at 37°C in 5% CO2. For crude cell membrane preparations, cells were washed and harvested in 10 mM HEPES (pH 7.5), and centrifuged at 4°C for 5 min at 2500 g. The cell pellet was either stored at −80°C or used directly.
(§1) Cells expressing either human, rat or mouse OX1R or OX2R were seeded at 8,000 cells/well in black 384 well clear bottom plates and incubated overnight at 37°C. The following day, medium was discarded and cells loaded with 50 μ l of 1 mM Fluo-4 AM (Invitrogen F14202) in dimethyl sulfoxide in working buffer (Hanks' balanced salt solution, 10 mM HEPES) and incubated for 60 min at 37°C. The loading buffer was removed and cells were washed with 100 μ l working buffer containing […], 0.1% BSA, and 2.5 mM Probenecid (pH 7.4) to remove the excess Fluo-4 AM. […] The assay plate was then transferred to the Molecular Devices-FLIPR384. The baseline calcium signal was recorded for 10 s, then the antagonist of interest was injected (10 μl at 3 times the final concentration) and the calcium signal recorded every second for 1 min, then every 2 s 40 times.

[2] = biological target: T2, mouse OX1R (Mus musculus, UniProt P58307); experiment: FLIPR orexin A-stimulated calcium accumulation, mouse OX1R; format: cell-based; conditions: HEK cells
T2 construct: expressed in transfected cells; host or cells: HEK; cells from GNF, San Diego
T2 sequence (P58307 1-416): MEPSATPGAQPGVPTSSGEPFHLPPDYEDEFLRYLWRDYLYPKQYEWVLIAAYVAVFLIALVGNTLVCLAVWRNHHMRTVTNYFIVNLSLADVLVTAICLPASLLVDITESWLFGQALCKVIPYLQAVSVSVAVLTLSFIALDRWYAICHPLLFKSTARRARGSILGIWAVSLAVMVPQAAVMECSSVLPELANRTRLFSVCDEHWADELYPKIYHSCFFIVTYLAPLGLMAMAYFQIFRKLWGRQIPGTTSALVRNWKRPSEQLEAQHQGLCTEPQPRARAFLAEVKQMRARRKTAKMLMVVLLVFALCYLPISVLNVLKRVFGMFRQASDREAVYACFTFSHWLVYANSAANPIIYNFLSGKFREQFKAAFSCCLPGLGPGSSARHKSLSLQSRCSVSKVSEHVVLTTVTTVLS
Procedure: Chinese Hamster Ovary (CHO) cells stably transfected with the cDNA encoding the human OX1R (CHO-hOX1) or OX2R (CHO-hOX2) were used (kindly provided by T. Cremer and Dr. S. Geisse, NIBR Basel, Switzerland). For measurements of calcium accumulation using FLIPR® (Fluorescent Imaging Plate Reader) assay, CHO or Human Embryonic Kidney (HEK) cells stably expressing mouse, rat or human OX1R or OX2R (kindly provided by Dr. A. Chen, GNF, San Diego, CA, USA) were used. All cells were cultured in 1:1 Dulbecco's Modified Eagle's Medium (DMEM)/Ham's F12 Nutrients Mixture (F12) supplemented with 10% (v/v) fetal bovine serum (FBS), […] (100 μg/ml), Fungizone (250 μg/ml), and Geneticin (G418, […]). Cells were maintained in a humidified incubator at 37°C in 5% CO2. For crude cell membrane preparations, cells were washed and harvested in 10 mM HEPES (pH 7.5), and centrifuged at 4°C for 5 min at 2500 g. The cell pellet was either stored at −80°C or used directly.
as §1, with “times. Plates were then incubated at room temperature for 30 min, 1, 2, or 4 h.” for “times.”

[3] = antagonist incubation 30 min, read-out: pKi (converted)
[4] = antagonist incubation 1 h, read-out: pKi (converted)
[5] = antagonist incubation 2 h, read-out: pKi (converted)
[6] = antagonist incubation 4 h, read-out: pKi (converted)
[7] = pKi, antagonist incubation 30 min

Compound | Ki [1, 3] [nM] | Ki [1, 4] [nM] | Ki [1, 5] [nM] | Ki [1, 6] [nM] | Ki [2, 7] [nM] | Ki ([2]; pKi, antagonist incubation 1 h) [nM] | Ki ([2]; pKi, antagonist incubation 2 h) [nM] | Ki ([2]; pKi, antagonist incubation 4 h) [nM] | Ki [2, 3] [nM] | Ki [2, 4] [nM] | Ki [2, 5] [nM] | Ki [2, 6] [nM] | Ki [1, 7] [nM] | Ki ([1]; pKi, antagonist incubation 1 h) [nM] | Ki ([1]; pKi, antagonist incubation 2 h) [nM] | Ki ([1]; pKi, antagonist incubation 4 h) [nM]
CNC(=O)[C@@H](c1ccccc1)N1CCc2cc(OC)c(OC)cc2[C@@H]1CCc1ccc(C(F)(F)F)cc1 [Almorexant] | 5.62 | 2.24 | 1.02 | 0.661 | 18.6 | 23.4 | 33.9 | 38.9 |  |  |  |  |  |  |  | 
Cc1ccc(-c2ncccn2)c(C(=O)N2C[C@H](COc3ccc(F)cn3)CC[C@H]2C)c1 [Filorexant] | 0.741 | 0.417 | 0.251 | 0.178 |  |  |  |  | 5.25 | 4.07 | 6.61 | 5.89 |  |  |  | 
COc1ccnc(N2CCC3(CCCN(Cc4c[nH]c5ccccc45)C3=O)CC2)n1 [IPSU, 2-((1H-Indol-3-yl)methyl)-9-(4-methoxypyrimidin-2-yl)-2,9-diazaspiro[5.5]undecan-1-one] | 23.4 | 28.2 | 24 | 28.2 |  |  |  |  | 331 | 490 | 288 | 324 |  |  |  | 
Cc1nc(C(=O)N2CCCC[C@H]2CNC(=O)c2cccc3occc23)c(-c2ccc(F)cc2)s1 [SB-649868] | 0.457 | 0.316 | 0.155 | 0.141 |  |  |  |  | 0.158 | 0.427 | 0.0407 | 0.0468 |  |  |  | 
Cc1ccc(-n2nccn2)c(C(=O)N2CCN(c3nc4cc(Cl)ccc4o3)CC[C@H]2C)c1 [Suvorexant] |  |  |  |  | 1.26 | 1.05 | 0.933 | 1.02 |  |  |  |  | 1.95 | 0.871 | 0.603 | 0.427
